The record followed here is ChEMBL document CHEMBL4619755 (J Nat Prod, 2020).

Activity calls are given as the source filed them. The calls are words filed in the database; no cut-off is given here. Bounds are passed on as bounds.

In data set [1] the test system is THP-1. In words: Inhibition of TNF-alpha secretion in LPS-stimulated human THP1 cells assessed as TNF-alpha level at 10 uM incubated for 1 hr followed by nigericin addition and measured after 1 hr by ELISA (reference value: 957.6 pg/mL). Type of data set: functional. (In an ELISA, binding on a coated surface is turned into a signal by an enzyme label.)
A short description of data set [2]: Cytotoxicity against human THP1 cells assessed as cell viability at 1 uM after 24 hrs by CellTiter-Glo luminescent cell viability assay relative to control. The data set is classed as cell-based. To be noted: THP-1 cells, read-out: Activity. (In general: Cellular ATP, detected with luciferase, serves as a proxy for viable cell number.)
Data set [3] in a line: Cytotoxicity against human THP1 cells assessed as cell viability at 0.1 uM after 24 hrs by CellTiter-Glo luminescent cell viability assay relative to control. Type of data set: cell-based. To be noted: THP-1 cells, read-out: Activity.
Data set [4] concerns the target T1, P2X purinoceptor 7 (Homo sapiens) (UniProt Q99572).
T1 sequence (whole entry): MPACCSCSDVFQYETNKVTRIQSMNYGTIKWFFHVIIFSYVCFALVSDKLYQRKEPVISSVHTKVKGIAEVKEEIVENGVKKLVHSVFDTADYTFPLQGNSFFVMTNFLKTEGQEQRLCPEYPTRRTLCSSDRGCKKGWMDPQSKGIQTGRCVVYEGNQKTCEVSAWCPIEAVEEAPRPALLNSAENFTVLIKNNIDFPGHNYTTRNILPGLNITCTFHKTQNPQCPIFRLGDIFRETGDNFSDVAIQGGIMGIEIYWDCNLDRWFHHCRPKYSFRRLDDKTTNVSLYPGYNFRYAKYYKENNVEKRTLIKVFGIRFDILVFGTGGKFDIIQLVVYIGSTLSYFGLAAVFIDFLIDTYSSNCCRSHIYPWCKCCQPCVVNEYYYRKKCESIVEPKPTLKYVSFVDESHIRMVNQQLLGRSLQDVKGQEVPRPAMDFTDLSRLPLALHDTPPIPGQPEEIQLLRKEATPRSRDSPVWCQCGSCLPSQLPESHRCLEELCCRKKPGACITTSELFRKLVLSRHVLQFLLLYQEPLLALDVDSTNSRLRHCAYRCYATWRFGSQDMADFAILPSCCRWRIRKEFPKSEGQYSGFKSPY
In words: Modulation of P2X7 receptor in LPS-stimulated human THP1 cells assessed as LPS-nigericin-stimulated intracellular potassium efflux at 1 uM incubated for 1 hr followed by nigericin challenge and measured after 1 hr by Green-2 AM dye based flow cytometric analysis (reference value: 29%). Type of data set: cell-based. To be noted: THP-1. On the technique in general: A flow cytometer gives signals particle by particle.

Data set [5] is described as follows: Cytotoxicity against human THP1 cells assessed as cell viability at 0.1 to 100 uM after 24 hrs in presence of LPS by CellTiter-Glo luminescent cell viability assay relative to control. The data set is classed as cell-based. To be noted: THP-1 cells, read-out: Activity.
Data set [6] addresses NACHT, LRR and PYD domains-containing protein 3 (Homo sapiens) (UniProt Q96P20). The data set can be described thus: Inhibition of NLRP3 inflammasome activation in LPS-stimulated human THP1 cells assessed as reduction in IL-1beta secretion at 1 uM incubated for 1 hr followed by nigericin addition and measured after 1 hr by ELISA relative to control. The data set is classed as cell-based. As to conditions: THP-1.

Data set [7] addresses T1, P2X purinoceptor 7 (Homo sapiens). The data set can be described thus: Modulation of P2X7 receptor in LPS-stimulated human THP1 cells assessed as LPS-nigericin-stimulated intracellular potassium efflux at 10 uM incubated for 1 hr followed by nigericin challenge and measured after 1 hr by Green-2 AM dye based flow cytometric analysis (reference value: 29%). The data set is classed as cell-based. As to conditions: THP-1.

For data set [8] the target is unchanged. The data set can be described thus: Modulation of P2X7 receptor in nigericin-stimulated human THP1 cells assessed as intracellular potassium efflux at 10 uM incubated for 30 mins followed by 1 uM nigericin challenge and measured after 30 mins by Green-2 AM dye based flow cytometric analysis (reference value: 27.1%). Type of data set: cell-based. To be noted: THP-1.

Data set [9] concerns THP-1. In words: Antiinflammatory activity in LPS-induced human THP1 cells assessed as IL-1beta secretion at 10 uM incubated for 1 hr followed by LPS stimulation and measured after 24 hrs by ELISA (reference value: 51.2 pg/mL). Type of data set: functional.
The target of data set [10] is NACHT, LRR and PYD domains-containing protein 3 (Homo sapiens) (UniProt Q96P20). The data set can be described thus: Inhibition of NLRP3 inflammasome activation in LPS-stimulated human THP1 cells assessed as reduction in IL-1beta secretion at 0.1 uM incubated for 1 hr followed by nigericin addition and measured after 1 hr by ELISA relative to control. Type of data set: cell-based. To be noted: THP-1.
Chain of NACHT, LRR and PYD domains-containing protein 3 (Homo sapiens) (Q96P20 whole entry, the tested form may be a part): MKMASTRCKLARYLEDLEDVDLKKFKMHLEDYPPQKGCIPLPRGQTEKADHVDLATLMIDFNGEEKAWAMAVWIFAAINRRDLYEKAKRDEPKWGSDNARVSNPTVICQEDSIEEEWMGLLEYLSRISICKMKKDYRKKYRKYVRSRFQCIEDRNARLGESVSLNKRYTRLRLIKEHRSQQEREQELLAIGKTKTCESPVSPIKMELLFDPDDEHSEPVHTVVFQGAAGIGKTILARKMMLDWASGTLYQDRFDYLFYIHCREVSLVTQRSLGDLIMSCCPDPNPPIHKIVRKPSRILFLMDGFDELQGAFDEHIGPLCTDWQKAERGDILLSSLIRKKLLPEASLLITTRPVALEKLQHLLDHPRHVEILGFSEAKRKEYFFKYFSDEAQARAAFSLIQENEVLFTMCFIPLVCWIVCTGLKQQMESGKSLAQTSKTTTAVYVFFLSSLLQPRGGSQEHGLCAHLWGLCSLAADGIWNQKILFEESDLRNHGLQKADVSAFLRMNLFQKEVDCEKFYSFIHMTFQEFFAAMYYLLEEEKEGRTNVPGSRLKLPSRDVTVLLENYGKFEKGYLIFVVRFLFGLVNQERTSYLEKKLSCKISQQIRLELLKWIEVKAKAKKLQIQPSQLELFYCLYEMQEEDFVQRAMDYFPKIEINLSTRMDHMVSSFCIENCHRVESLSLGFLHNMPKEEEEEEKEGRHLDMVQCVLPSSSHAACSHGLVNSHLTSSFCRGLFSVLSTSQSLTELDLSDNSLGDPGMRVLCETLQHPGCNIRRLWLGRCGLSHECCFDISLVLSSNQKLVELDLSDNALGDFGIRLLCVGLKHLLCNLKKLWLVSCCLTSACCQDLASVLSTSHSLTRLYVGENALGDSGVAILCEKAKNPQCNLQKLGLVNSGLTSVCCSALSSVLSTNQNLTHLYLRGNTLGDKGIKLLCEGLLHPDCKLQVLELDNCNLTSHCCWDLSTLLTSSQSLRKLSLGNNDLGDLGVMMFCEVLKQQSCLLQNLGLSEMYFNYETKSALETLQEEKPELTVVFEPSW

Data set [11] is described as follows: Cytotoxicity against human THP1 cells assessed as cell viability at 10 uM after 24 hrs by CellTiter-Glo luminescent cell viability assay relative to control. The data set is classed as cell-based. As to conditions: THP-1 cells, read-out: Activity.
In data set [12] the target is NACHT, LRR and PYD domains-containing protein 3 (Homo sapiens) (UniProt Q96P20). The data set can be described thus: Inhibition of NLRP3 inflammasome activation in LPS-stimulated human THP1 cells assessed as reduction in IL-1beta secretion at 10 uM incubated for 1 hr followed by nigericin addition and measured after 1 hr by ELISA relative to control. To be noted: THP-1. Type of data set: cell-based.

Data set [13] concerns THP-1. The data set can be described thus: Modulation of intracellular calcium release in LPS-stimulated human THP1 cells at 1 to 100 uM incubated for 1 hr followed by nigericin challenge and measured after 1 hr by Fluo-3dye based flow cytometric analysis. Type of data set: functional, cell-based.
A short description of data set [14]: Cytotoxicity against human THP1 cells assessed as cell viability at 100 uM after 24 hrs by CellTiter-Glo luminescent cell viability assay relative to control. The data set is classed as cell-based. To be noted: THP-1 cells, read-out: Activity.
Data set [15] deals with THP-1. The data set can be described thus: Antiinflammatory activity in human THP1 cells assessed as reduction in LPS-induced IL-1beta secretion at 0.1 to 10 uM incubated for 1 hr followed by LPS stimulation and measured after 24 hrs by ELISA. The data set is classed as functional, cell-based.
For data set [16], the target named is T1, P2X purinoceptor 7 (Homo sapiens). In words: Modulation of P2X7 receptor in nigericin-stimulated human THP1 cells assessed as intracellular potassium efflux at 10 uM incubated for 30 mins followed by 10 uM nigericin challenge and measured after 30 mins by Green-2 AM dye based flow cytometric analysis (reference value: 27.1%). The data set is classed as cell-based. As to conditions: THP-1.

Data set [17] has the same target. The data set can be described thus: Modulation of P2X7 receptor in nigericin-stimulated human THP1 cells assessed as intracellular potassium efflux at 10 uM incubated for 30 mins followed by 5 uM nigericin challenge and measured after 30 mins by Green-2 AM dye based flow cytometric analysis (reference value: 27.1%). Type of data set: cell-based. As to conditions: THP-1.

On to `CC(C)(O)c1coc(S(=O)(=O)NC(=O)Nc2c3c(cc4c2CCC4)CCC3)c1`, for which the Activity with THP-1 [1] was found to be 957.6 pg/mL.
As a reminder, the inhibition is how much of the control response was suppressed. `C=C(C)[C@@H]1CCC(C)=C[C@H]1c1c(O)cc(CCCCC)cc1O` [CANNABIDIOL]: the viability at 24 h, 1 µM in data set [2] worked out at 97.6%. Besides, the viability at 24 h, 0.1 µM in data set [3] was determined as 96.5%. Also, the Activity in [4] was 20%; in data set [7] it was 16%; in [8], 16.1%; in the data set with THP-1 [9], 32.9 pg/mL; in [16], 12.4%; in [17], 13.1%. Moreover, the Activity with THP-1 [1] came to 661.9 pg/mL. The viability at 24 h, up to 100 µM in [5] is greater than 97%. Moreover, the values for the inhibition in data set [6], in data set [10] and in data set [12] were 64.1%, 63.9% and 83.1%, respectively. Also, the viability at 24 h, 10 µM in data set [11] was 103%. Also, the outcome in the data set on THP-1 [13] and in the data set on THP-1 [15] was inactive. Moreover, the viability at 24 h, 100 µM in [14] was determined as 99.9%.
Regarding `C=C1C(=O)[C@]23[C@H](O)[C@H]1CC[C@H]2[C@@]12CO[C@]3(O)[C@@H](O)[C@@H]1C(C)(C)CC[C@@H]2O` [ORIDONIN], the Activity in the data set with THP-1 [1] came to 777.2 pg/mL.
